# Experimental data: patent US10478407B2, “Pharmaceutical composition for viral infections” (The Administrators of the Tulane Educational Fund, priority 2018, dated 2019)
# Experiments:
# Ebola virus (Zaire 76) = details: 5 μg/ml; FIG. 17
# [1] = tested on: Herpes simplex virus type 1, ATCC VR-733, Strain F(1); test: Virucidal suspension test of solutions A-18 to D-18 against HSV-1, Vero indicator cells (Example 18); assay type: cell-based; details: for viral inhibitory effect: comparable concentrations
# Description: A suspension of virus was exposed to the use dilutions of the products. At the end of the exposure time, an aliquot was removed, neutralized by serial dilution, and assayed for the presence of virus. The virus controls, cytotoxicity controls, and neutralization controls were assayed in parallel. Antiviral properties of the solutions were evaluated and compared at the specified concentrations and time intervals.
# Dilutions: 1:5 defined as 1 ml test substance+4 parts sterile PBS=0.2 mg/ml
# • 1:10 defined as 1 ml test substance+9 parts sterile PBS=0.1 mg/ml • 1:15 defined as 1 ml test substance+14 parts sterile PBS=0.07 mg/ml • 1:20 defined as 1 ml test substance+19 parts sterile PBS=0.05 mg/ml • 1:25 defined as 1 ml test substance+24 parts sterile PBS=0.04 mg/ml Virus: Herpes simplex virus type 1, ATCC VR-733, Strain F(1) Exposure Time: 30 minutes Exposure Temperature: Room temperature (22.0° C.) Organic Soil Load: 1% fetal bovine serum Test Medium: Minimum Essential Medium (MEM) supplemented with 5% (v/v) heat-inactivated fetal bovine serum (FBS), […], 100 units/ml penicillin, and 2.5 μg/ml amphotericin B. Indicator Cell Cultures: Vero Results
# A similar experiment was run with 15 minutes contact time. The graphical representation can be seen in FIG. 6.
# [2] = tested on: Herpes simplex virus type 1, ATCC VR-733, Strain F(1); test: Virucidal suspension test of solutions A-17 and B-17 against HSV-1, Vero indicator cells (Example 17); assay type: cell-based
# Description: A suspension of virus was exposed to the use dilutions of the products. At the each pre-determined exposure time an aliquot was removed, neutralized by serial dilution, and assayed for the presence of virus. The virus controls, cytotoxicity controls, and neutralization controls were assayed in parallel. Antiviral properties of the solutions were evaluated and compared at the specified concentrations and time intervals.
# Dilutions: FS (undiluted) defined as 1 ml test substance+0 ml PBS
# • 1:10 defined as 1 ml test substance+9 ml PBS • 1:100 defined as 1 ml of the 1:10 dilution+9 ml PBS Virus: Herpes simplex virus type 1, ATCC VR-733, Strain F(1) Exposure Time: 15 minutes and 60 minutes Exposure Temperature: Room temperature (22.0° C.) Organic Soil Load: 1% fetal bovine serum Test Medium: Minimum Essential Medium (MEM) supplemented with 5% (v/v) heat-inactivated fetal bovine serum (FBS), 10 μg/ml gentamicin, 100 units/ml penicillin, and 2.5 μg/ml amphotericin B. Indicator Cell Cultures: Vero Results
# [3] = 15 minutes contact time, FIG. 6
# [4] = dilution 1:5 = 0.2 mg/ml, 30 minutes exposure, 22.0° C.
# [5] = dilution 1:10 = 0.1 mg/ml, 30 minutes exposure
# [6] = dilution 1:15 = 0.07 mg/ml, 30 minutes exposure
# [7] = dilution 1:20 = 0.05 mg/ml, 30 minutes exposure
# [8] = dilution 1:25 = 0.04 mg/ml, 30 minutes exposure
# [9] = FS (undiluted), 15 minutes exposure, 22.0° C., stock A-17 1 mg/mL, B-17 10 mg/mL
# [10] = FS (undiluted), 60 minutes exposure
# [11] = dilution 1:10, 15 minutes exposure
# [12] = dilution 1:10, 60 minutes exposure
# [13] = dilution 1:100, 15 minutes exposure
# [14] = dilution 1:100, 60 minutes exposure
Substance,"viral inhibitory effect [1, 3]","% Reduction [1, 4] [%]","Log10 Reduction [1, 4] [log10]","% Reduction [1, 5]","Log10 Reduction [1, 5]","% Reduction [1, 6]","Log10 Reduction [1, 6]","% Reduction [1, 7]","Log10 Reduction [1, 7]","% Reduction [1, 8]","Log10 Reduction [1, 8]",also measured
C12-alkyl(ethylbenzyl) dimethylammonium chloride,,,,,,,,,,,,deactivation of Ebola virus (Ebola virus (Zaire 76)): Complete deactivation
C12-alkyl(ethylbenzyl) dimethylammonium chloride [Formulation A-18],complete inactivation,≥99.997,≥4.5,99.4%,2.25 log10,98.2%,1.75 log10,96.8%,1.5 log10,90.0%,1 log10,"% Reduction [1, 3]: 99.997%; log10 reduction [1, 3]: 6.75 log10"
C14-alkyl(ethylbenzyl) dimethylammonium chloride [Formulation B-18],,94.4,1.24,43.8%,0.25 log10,No Reduction,No Reduction,No Reduction,No Reduction,No Reduction,No Reduction,
benzalkonium chloride [Formulation B-17],,,,,,,,,,,,"% reduction in viral titer [2, 9]: ≥ 99.99%; log10 reduction in viral titer [2, 9]: ≥ 4.00 log10; % reduction in viral titer [2, 10]: ≥ 99.98%; log10 reduction in viral titer [2, 10]: ≥ 3.75 log10; % reduction in viral titer [2, 11]: ≥ 99.999%; log10 reduction in viral titer [2, 11]: ≥ 5.00 log10; % reduction in viral titer [2, 12]: ≥ 99.998%; log10 reduction in viral titer [2, 12]: ≥ 4.75 log10; % reduction in viral titer [2, 13]: 90.0%; log10 reduction in viral titer [2, 13]: 1 log10; % reduction in viral titer [2, 14]: 99.7%; log10 reduction in viral titer [2, 14]: 2.5 log10"
"benzalkonium chloride [Formulation C-18, reference compound]",no viral inhibitory effect,43.8,0.25,No Reduction,No Reduction,No Reduction,No Reduction,No Reduction,No Reduction,No Reduction,No Reduction,
